This note sets out measurements from patent publication US12013398B2, “Compositions and methods for treatment of invasive cancers” (The George Washington University, priority 2021, dated 2024).

Common to all, as to format: cell-based
For one test, the target named is T1, ATP1a1 (Homo sapiens, UniProt P05023).
T1 construct: endogenous in cells; host or cells: MCF10DCIS.com (DCIS.com) cells, overconfluent
The test is described as follows: Immunofluorescence imaging of plasma membrane ATP1A1 localization in overconfluent DCIS.com cells. To be noted: OC DCIS.com cells; 20 nM lithium bicarbonate or 100 nM ouabain, 24 hours; IF images. An excerpt:
FIGS. 4A-4B depict images illustrating ion channel enrichment in DCIS plasma membranes. […] Transferrin receptor (TfR) distribution was insensitive to cell crowding. IF images. […] Scale bar=10 μm.
Crowding-induced cell volume changes typically occur under isotonic conditions and are accompanied by the efflux of intracellular osmolytes through ion channels. Methods herein assessed if ion channel activities were altered when cells are crowded.

In test [1] the test system is DCIS.com cells. The test is described as follows: Cell cycle arrest in crowded DCIS.com cells. To be noted: crowded DCIS cells treated with TSA vs vehicle. An excerpt:
FIGS. 11A-11D depict images and graphs illustrating independent possibilities for crowding-mediated increased invasiveness. […] FIGS. 11C-11D show images of DCIS.com cell invasiveness after treatment with vehicle or TSA (FIG. 11C) and the percentage of invasive cells per treatment group (FIG. 11D).
(§1) Also assessed were two independent possibilities for crowding-mediated increased invasiveness: YAP-association and cell cycle arrest (high-density cells are subject to G1 arrest).

Test [2] deals with DCIS.com cells. The test is described as follows: 2D hydrogel matrix-based invasion assay. To be noted: crowded DCIS.com cells treated with TSA vs vehicle.
Source text: FIGS. 6A-6G depict images illustrating 2D hydrogel-based invasion assays. […] Percent (%) invading cells was calculating by dividing this value by the total number of spots. […] Scale bar=100 μm (FIGS. 6B-6E) and 10 μm (FIGS. 6F-6G).
To compare the invasive potential of live cells between different treatment groups, exemplary methods herein established a hydrogel matrix-based invasion assay (FIG. 6A). This assay was used to quantify the invasive cell fraction as a percentage of the total, based on fluorescence imaging results (FIGS. 6B-6E). Since cell stiffness is modulated by the stiffness of the surroundings [the values for normal breast versus DCIS cells are known to be ˜0.1 versus ˜10 kPa], the hydrogel matrix could be stiffness-controlled within the range specified above, as confirmed by nanoindenter measurements.
as §1

The structures appear in SMILES notation. “Also recorded” adds a separate entry of the source.

As for `C[C@@H]1O[C@@H](O[C@H]2C[C@@H](O)[C@]3(CO)[C@H]4[C@H](O)C[C@]5(C)[C@@H](C6=CC(=O)OC6)CC[C@]5(O)[C@@H]4CC[C@]3(O)C2)[C@H](O)[C@H](O)[C@H]1O` [ouabain], the “PM ATP1a1 localization / PM abundance of ion channels” value on ATP1a1 was “the PM abundance of ion channels was perturbed; also recorded: perturbed PM ATP1a1 localization”.
On the same count and under the same terms, in the case of `O=C([O-])O.[Li+]` [lithium bicarbonate] it was “the perturbation was less obvious”.
As for `CC(/C=C/C(=O)NO)=C\[C@@H](C)C(=O)c1ccc(N(C)C)cc1` [Trichostatin A], the cell cycle arrest result in the test on DCIS.com cells [1] was “reversed the cell cycle arrest”. Also, in the test on DCIS.com cells [2], the “invasiveness of DCIS.com cells (percentage of invasive cells)” value is reported as “did not decrease the invasiveness”.
